Data taken from patent publication US8748418B2, “1,4-oxazepines as BACE1 and/or BACE2 inhibitors” (Hoffmann-La Roche Inc., priority 2011, dated 2014).

What was measured:
[1] = molecular target: BACE2 (Homo sapiens (Human), UniProt Q9Y5Z0); experiment: Immunofluorescence Resonance Energy Transfer (FRET) assay for BACE2 inhibition; assay type: biochemical; conditions: TMEM27-based peptide substrate 5 μM, pH 4.5
Method: Immunofluorescence Resonance Energy Transfer (FRET) Assay for BACE2 Inhibition:
BACE2 enzyme ectodomain (derived from plasmid “pET17b-T7-hu proBACE2”) was prepared as described in Ostermann et al., “Crystal Structure of Human BACE2 in Complex with a Hydroxyethylamine Transition-state Inhibitor”, Journal of Molecular Biology 2006, 355, 249-261. The pro-enzyme was stored at 4° C. at a concentration of 70 μg/ml.
The FRET assay was performed essentially as described in Grüninger-Leitch et al., Journal of Biological Chemistry (2002) 277(7) 4687-93 (“Substrate and inhibitor profile of BACE (beta-secretase) and comparison with other mammalian aspartic proteases”). In summary, a peptide is designed that is cleaved by the protease. The peptide is labelled with dabcyl at the N terminus and Lucifer Yellow at the C-terminus, such that for an intact peptide the Lucifer Yellow fluorescence is quenched by the dabcyl. When the peptide is cut by BACE2, the quenching is removed and a fluorescent signal is generated.
The assay was performed as described in Grueninger et al. 2002 at pH 4.5 using a substrate concentration of 5 μM. A FRET peptide based on the TMEM27 sequence was devised. dabcyl-[…]-LucY (SEQ ID NO: 1).
The assay readout is the initial rate of change of fluorescence intensity giving a relative measure of BACE2 activity. Small values correspond to high inhibition and larger values to low inhibition. […] IC50 values were determined using these assay values generated for a range of inhibitor concentrations and the curve fitting software XLfit (IDBS) using the Sigmoidal Dose-Response Model.

[2] = molecular target: BACE1 (Homo sapiens (Human), UniProt P56817); experiment: Cellular Aβ-lowering assay (Aβ40 ELISA in HEK293 cells expressing human APP695); assay type: cell-based; conditions: HEK293 cells stably transfected with human APP wt (APP695), Aβ40 in supernatant after 18-20 hrs
BACE1, sequence (P56817 46-501): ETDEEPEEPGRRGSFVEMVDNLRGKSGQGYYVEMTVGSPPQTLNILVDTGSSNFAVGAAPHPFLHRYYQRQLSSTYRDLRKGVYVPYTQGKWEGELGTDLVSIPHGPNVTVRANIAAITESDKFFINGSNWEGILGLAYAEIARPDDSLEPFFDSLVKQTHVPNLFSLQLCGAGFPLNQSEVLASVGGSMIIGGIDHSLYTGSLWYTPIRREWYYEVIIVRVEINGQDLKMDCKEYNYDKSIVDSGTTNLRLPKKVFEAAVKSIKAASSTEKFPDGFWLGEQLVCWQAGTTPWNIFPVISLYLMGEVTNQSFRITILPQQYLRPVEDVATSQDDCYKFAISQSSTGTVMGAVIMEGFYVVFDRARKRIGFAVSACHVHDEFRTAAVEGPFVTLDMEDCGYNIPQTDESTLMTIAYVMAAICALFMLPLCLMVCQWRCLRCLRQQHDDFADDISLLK
Method: Cellular Aβ-Lowering Assay:
Human HEK293 cells which are stably transfected with a vector expressing a cDNA of the human APP wt gene (APP695) were used to assess the potency of the compounds in a cellular assay. The cells were seeded in 96-well microtiter plates in cell culture medium (Iscove, plus 10% (v/v) fetal bovine serum, glutamine, penicillin/streptomycin) to about 80% confluence and the compounds were added at a 10× concentration in 1/10 volume of medium without FCS containing 8% DMSO (final concentration of DMSO was kept at 0.8% v/v). After 18-20 hrs incubation at 37° C. and 5% CO2 in a humidified incubator the culture supernatant was harvested for the determination of Aβ40 concentrations. 96 well ELISA plates (e.g., Nunc MaxiSorb) were coated with monoclonal antibody which specifically recognize the C-terminal end of Aβ40 (Brockhaus et al., NeuroReport 9, 1481-1486; 1998). After blocking of non-specific binding sites with e.g. 1% BSA and washing, the culture supernatants were added in suitable dilutions together with a horseradish peroxidase-coupled Aβ detection antibody (e.g., antibody 4G8, Senetek, Maryland Heights, Mo.) and incubated for 5 to 7 hrs. Subsequently the wells of the microtiter plate were washed extensively with Tris-buffered saline containing 0.05% Tween 20 and the assay was developed with tetramethylbenzidine/H2O2 in citric acid buffer. After stopping the reaction with one volume 1NH2SO4 the reaction was measured in an ELISA reader at 450 nm wavelength. The concentrations of Aβ in the culture supernatants were calculated from a standard curve obtained with known amounts of pure Aβ peptide.

BACE2, sequence (Q9Y5Z0 63-473): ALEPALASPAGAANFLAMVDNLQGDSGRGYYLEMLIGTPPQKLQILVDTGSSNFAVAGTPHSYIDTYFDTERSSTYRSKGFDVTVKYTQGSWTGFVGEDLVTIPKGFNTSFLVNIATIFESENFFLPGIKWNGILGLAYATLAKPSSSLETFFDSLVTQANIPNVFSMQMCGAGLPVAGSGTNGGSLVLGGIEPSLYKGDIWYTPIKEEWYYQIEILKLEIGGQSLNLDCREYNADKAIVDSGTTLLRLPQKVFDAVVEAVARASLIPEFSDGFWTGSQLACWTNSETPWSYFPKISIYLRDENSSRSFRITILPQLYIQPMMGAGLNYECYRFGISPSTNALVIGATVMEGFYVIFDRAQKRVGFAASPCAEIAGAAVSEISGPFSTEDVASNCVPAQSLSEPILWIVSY

IC50 [1]	IC50 [2]	Structure (SMILES)
24 nM	70 nM	C[C@]1(c2cc(NC3CCc4cc(Cl)cnc43)ccc2F)N=C(N)COC[C@@H]1F (stereo partly drawn) [Example 1, [3-((5R,6R)-3-Amino-6-fluoro-5-methyl-2,5,6,7-tetrahydro-[1,4]oxazepin-5-yl)-4-fluoro-phenyl]-(3-chloro-6,7-dihydro-5H-[1]pyrindin-7-yl)-amine]
35 nM	40 nM	C[C@]1(c2cc(NCc3nn(C(F)F)cc3Cl)ccc2F)N=C(N)COC[C@@H]1F [Example 2, (5R,6R)-5-{5-[(4-Chloro-1-difluoromethyl-1H-pyrazol-3-ylmethyl)-amino]-2-fluoro-phenyl}-6-fluoro-5-methyl-2,5,6,7-tetrahydro-[1,4]oxazepin-3-ylamine]
72 nM	580 nM	C[C@]1(c2cc(NC3CCOC3)ccc2F)N=C(N)COC[C@@H]1F (stereo partly drawn) [Example 3, (5R,6R)-6-Fluoro-5-[2-fluoro-5-(tetrahydro-furan-3-ylamino)-phenyl]-5-methyl-2,5,6,7-tetrahydro-[1,4]oxazepin-3-ylamine]
73 nM	400 nM	C[C@]1(c2cc(NC3CCCOC3)ccc2F)N=C(N)COC[C@@H]1F (stereo partly drawn) [Example 4, (5R,6R)-6-Fluoro-5-[2-fluoro-5-(tetrahydro-pyran-3-ylamino)-phenyl]-5-methyl-2,5,6,7-tetrahydro-[1,4]oxazepin-3-ylamine]
1480 nM	2400 nM	C[C@]1(c2cc(NC3CCOCC3)ccc2F)N=C(N)COC[C@@H]1F [Example 5, (5R,6R)-6-Fluoro-5-[2-fluoro-5-(tetrahydro-pyran-4-ylamino)-phenyl]-5-methyl-2,5,6,7-tetrahydro-[1,4]oxazepin-3-ylamine]
11 nM	30 nM	C[C@]1(c2cc(NCc3nn(C(F)F)cc3Cl)ccc2F)N=C(N)COCC1(F)F [Example 6, (R)-5-{5-[(4-Chloro-1-difluoromethyl-1H-pyrazol-3-ylmethyl)-amino]-2-fluoro-phenyl}-6,6-difluoro-5-methyl-2,5,6,7-tetrahydro-[1,4]oxazepin-3-ylamine]
310 nM	170 nM	CC[C@]1(c2cc(NCc3nn(C(F)F)cc3Cl)ccc2F)N=C(N)COCC1(F)F [Example 7, (R)-5-{5-[(4-Chloro-1-difluoromethyl-1H-pyrazol-3-ylmethyl)-amino]-2-fluoro-phenyl}-5-ethyl-6,6-difluoro-2,5,6,7-tetrahydro-[1,4]oxazepin-3-ylamine]
30 nM	90 nM	C[C@]1(c2cc(N[C@H]3CCc4cc(Cl)cnc43)ccc2F)N=C(N)COCC1(F)F [Example 8, [3-((R)-3-Amino-6,6-difluoro-5-methyl-2,5,6,7-tetrahydro-[1,4]oxazepin-5-yl)-4-fluoro-phenyl]-((S)-3-chloro-6,7-dihydro-5H-[1]pyrindin-7-yl)-amine]
650 nM	2100 nM	C[C@]1(c2cc(N[C@@H]3CCc4cc(Cl)cnc43)ccc2F)N=C(N)COCC1(F)F [Example 9, [3-((R)-3-Amino-6,6-difluoro-5-methyl-2,5,6,7-tetrahydro-[1,4]oxazepin-5-yl)-4-fluoro-phenyl]-((R)-3-chloro-6,7-dihydro-5H-[1]pyrindin-7-yl)-amine]
910 nM	700 nM	C[C@]1(c2cc(Nc3ccc(C#N)cc3)ccc2F)N=C(N)COCC1(F)F [Example 10, 4-[3-((R)-3-Amino-6,6-difluoro-5-methyl-2,5,6,7-tetrahydro-[1,4]oxazepin-5-yl)-4-fluoro-phenylamino]-benzonitrile]
5 nM	120 nM	CC1(C)OCC(N)=N[C@](C)(c2cc(N[C@H]3CCc4cc(C#N)cnc43)ccc2F)C1(F)F [Example 12, (S)-7-[3-((R)-3-Amino-6,6-difluoro-5,7,7-trimethyl-2,5,6,7-tetrahydro-[1,4]oxazepin-5-yl)-4-fluoro-phenylamino]-6,7-dihydro-5H-[1]pyrindine-3-carbonitrile]
95 nM	310 nM	CC1(C)OCC(N)=N[C@](C)(c2cc(N[C@@H]3CCc4cc(C#N)cnc43)ccc2F)C1(F)F [Example 13, (R)-7-[3-((R)-3-Amino-6,6-difluoro-5,7,7-trimethyl-2,5,6,7-tetrahydro-[1,4]oxazepin-5-yl)-4-fluoro-phenylamino]-6,7-dihydro-5H-[1]pyrindine-3-carbonitrile]
28 nM	71 nM	CC1(C)OCC(N)=N[C@](C)(c2cc(NC3CCc4cc(Cl)cnc43)ccc2F)C1(F)F (stereo partly drawn) [Example 14, [3-((R)-3-Amino-6,6-difluoro-5,7,7-trimethyl-2,5,6,7-tetrahydro-[1,4]oxazepin-5-yl)-4-fluoro-phenyl]-(3-chloro-6,7-dihydro-5H-[1]pyrindin-7-yl)-amine]
58 nM	40 nM	CC1(C)OCC(N)=N[C@](C)(c2cc(NC3COc4cc(Cl)cnc43)ccc2F)C1(F)F (stereo partly drawn) [Example 15, [3-((R)-3-Amino-6,6-difluoro-5,7,7-trimethyl-2,5,6,7-tetrahydro-[1,4]oxazepin-5-yl)-4-fluoro-phenyl]-(6-chloro-2,3-dihydro-furo[3,2-b]pyridin-3-yl)-amine]
133 nM	120 nM	CC1(C)OCC(N)=N[C@](C)(c2cc(NC3CCCc4cc(C#N)cnc43)ccc2F)C1(F)F (stereo partly drawn) [Example 16, 8-[3-((R)-3-Amino-6,6-difluoro-5,7,7-trimethyl-2,5,6,7-tetrahydro-[1,4]oxazepin-5-yl)-4-fluoro-phenylamino]-5,6,7,8-tetrahydro-quinoline-3-carbonitrile]
400 nM	320 nM	CC1(C)OCC(N)=N[C@](C)(c2cc(NC3COc4cc(Cl)ccc43)ccc2F)C1(F)F (stereo partly drawn) [Example 17, (R)-5-[5-(6-Chloro-2,3-dihydro-benzofuran-3-ylamino)-2-fluoro-phenyl]-6,6-difluoro-5,7,7-trimethyl-2,5,6,7-tetrahydro-[1,4]oxazepin-3-ylamine]
530 nM	240 nM	Cn1ccc(Nc2ccc(F)c([C@@]3(C)N=C(N)COC(C)(C)C3(F)F)c2)n1 [Example 18, (R)-6,6-Difluoro-5-[2-fluoro-5-(1-methyl-1H-pyrazol-3-ylamino)-phenyl]-5,7,7-trimethyl-2,5,6,7-tetrahydro-[1,4]oxazepin-3-ylamine]
4160 nM	310 nM	CC1(C)OCC(N)=N[C@](C)(c2cc(Nc3ccc(F)cc3)ccc2F)C1(F)F [Example 19, (R)-6,6-Difluoro-5-[2-fluoro-5-(4-fluoro-phenylamino)-phenyl]-5,7,7-trimethyl-2,5,6,7-tetrahydro-[1,4]oxazepin-3-ylamine]
170 nM	1900 nM	CC1(C)OCC(N)=N[C@](C)(c2cc(N[C@H]3CCc4cc(C#N)cnc43)c(F)cc2F)C1(F)F [Example 20, (S)-7-[5-((R)-3-Amino-6,6-difluoro-5,7,7-trimethyl-2,5,6,7-tetrahydro-[1,4]oxazepin-5-yl)-2,4-difluoro-phenylamino]-6,7-dihydro-5H-[1]pyrindine-3-carbonitrile]
2810 nM	14000 nM	CC1(C)OCC(N)=N[C@](C)(c2cc(N[C@@H]3CCc4cc(C#N)cnc43)c(F)cc2F)C1(F)F [Example 21, (R)-7-[5-((R)-3-Amino-6,6-difluoro-5,7,7-trimethyl-2,5,6,7-tetrahydro-[1,4]oxazepin-5-yl)-2,4-difluoro-phenylamino]-6,7-dihydro-5H-[1]pyrindine-3-carbonitrile]
–	5900 nM	Cc1ccc(Nc2ccc(F)c([C@@]3(C)N=C(N)COC(C)(C)C3(F)F)c2)cn1 [Example 27, (R)-6,6-Difluoro-5-[2-fluoro-5-(6-methyl-pyridin-3-ylamino)-phenyl]-5,7,7-trimethyl-2,5,6,7-tetrahydro-[1,4]oxazepin-3-ylamine]
